Laboratory results from patent US11279733B2, “Peptide antibiotics” (priority 2017, dated 2022).
Converted amounts (≈) assume the structure as drawn. Read-outs that look alike come from different tables or passages of the source. Positions of bridges follow the written chain, without caps; N, C: chain ends. Non-standard residues stand in square brackets, D forms with d. Residues, ends and D or L forms follow the SMILES beside them. *: point of attachment. dPhe(4-NO2) = N[C@H](Cc1ccc([N+](=O)[O-])cc1)C(=O)O; Decanoyl(3R-OH) = CCCCCCC[C@@H](O)CC(=O)*; dBip = N[C@H](Cc1ccc(-c2ccccc2)cc1)C(=O)O; dDab = NCC[C@@H](N)C(=O)O; Dab = NCC[C@H](N)C(=O)O; Dap = NC[C@H](N)C(=O)O

Key:
A. baumannii ATCC 19606 = details: ATCC 19606
Protocol: (§1) Bacteria were either obtained from American Type Culture Collection (ATCC; Manassas, Va., USA) or independent academic clinical isolate collections, as listed in Table 18 below. Bacteria were cultured in Nutrient broth (NB; Bacto Laboratories, catalogue No. 234000) or Mueller Hinton broth (MHB; Bacto Laboratories, catalogue No. 211443) at 37° C. overnight with shaking (˜180 RPM). A sample of each culture was then diluted 50-fold in fresh MHB and incubated at 37° C. for 2-3 h with shaking (˜180 RPM). Compound stock solutions were prepared as 0.64 mg/mL or 2.56 mg/mL in water. The compounds, at twice the final desired concentration, were serially diluted 2-fold across the wells of 96-well plates (Polystyrene, Corning, catalogue No. 3370). Mid-log phase bacterial cultures (after 2-3 h incubation) were diluted to a final concentration of 1×10^6 colony forming units (CFU)/mL, and 50 μL was added to each well giving a final cell density of 5×10^5 and a compound concentration range of 32 μg/mL to 0.015 μg/mL (128-0.06 μg/mL against P. aeruginosa PA9704).

A. baumannii GN_093 PmxR = details: GN 093 PmxR
Protocol: as §1

E. coli ATCC 25922 = details: ATCC 25922
Protocol: as §1

K. pneumoniae ATCC 13883 = details: ATCC 13883
Protocol: as §1

[1] = tested on: K. pneumoniae ATCC 700603, MDR; details: ATCC 700603
Protocol: as §1

[2] = tested on: K. pneumoniae ATCC BAA-2146, NDM-1 pos; details: ATCC BAA-2146
Protocol: as §1

[3] = tested on: K. pneumoniae GN_102 PmxR; details: GN 102 PmxR
Protocol: as §1

[4] = tested on: K. pneumoniae GN_106, PmxR; details: GN 106, PmxR
Protocol: as §1

P. aeruginosa ATCC 27853 = details: ATCC 27853
Protocol: as §1

[5] = tested on: P. aeruginosa GN_043, PmxR
Protocol: as §1

[6] = tested on: P. aeruginosa GN_105, PmxR; details: GN 105, PmxR
Protocol: as §1

[7] = tested on: S. aureus ATCC 25923, MSSA; details: ATCC 25923
Protocol: as §1

SMILES: CCCCCCC[C@@H](O)CC(=O)N[C@H](CCN)C(=O)N[C@H]1CCNC(=O)[C@H](CC(C)C)NC(=O)[C@H](C)NC(=O)[C@H](CCN)NC(=O)[C@H](CC(C)C)NC(=O)[C@@H](Cc2ccccc2)NC(=O)[C@H](CCN)NC1=O [compound 4944, 3(R)OH-nC9CO-D-Dab-cyc[L-Dab-L-Dab-D-Phe-L-Leu-L-Dab-L-Ala-L-Leu]] ({Decanoyl(3R-OH)}-[dDab][Dab][Dab][dF]L[Dab]AL; lactam 2-C)
- MIC A. baumannii ATCC 19606 (A. baumannii ATCC 19606): 32 µg/mL (≈ 31.5 µM)
- MIC A. baumannii GN_093 PmxR (A. baumannii GN_093 PmxR): >32 µg/mL
- MIC E. coli ATCC 25922 (E. coli ATCC 25922): 16 µg/mL (≈ 15.8 µM)
- MIC K. pneumoniae ATCC 13883 (K. pneumoniae ATCC 13883): 16 µg/mL (≈ 15.8 µM)
- MIC K. pneumoniae ATCC 700603, MDR [1]: 16 µg/mL (≈ 15.8 µM)
- MIC K. pneumoniae ATCC BAA-2146, NDM-1 pos [2]: 8 µg/mL (≈ 7.88 µM)
- MIC K. pneumoniae GN_102 PmxR [3]: 8 µg/mL (≈ 7.88 µM)
- MIC K. pneumoniae GN_106, PmxR [4]: 32 µg/mL (≈ 31.5 µM)
- MIC P. aeruginosa ATCC 27853 (P. aeruginosa ATCC 27853): 8 µg/mL (≈ 7.88 µM)
- MIC P. aeruginosa GN_043, PmxR ([5]; polymyxin-resistant): 4 µg/mL (≈ 3.94 µM)
- MIC P. aeruginosa GN_105, PmxR [6]: 16 µg/mL (≈ 15.8 µM)
- MIC S. aureus ATCC 25923, MSSA [7]: >32 µg/mL

SMILES: CCCCCCC[C@@H](O)CC(=O)N[C@@H](CCN)C(=O)N[C@H]1CCNC(=O)[C@H](CC(C)C)NC(=O)[C@H](CN)NC(=O)[C@H](CCN)NC(=O)[C@H](CC(C)C)NC(=O)[C@@H](Cc2ccc(-c3ccccc3)cc2)NC(=O)[C@H](CCN)NC1=O [compound 5565, 3(R)OH-nC9CO-L-Dab-cyc[L-Dab-L-Dab-D-Bip-L-Leu-L-Dab-L-Dap-L-Leu]] ({Decanoyl(3R-OH)}-[Dab][Dab][Dab][dBip]L[Dab][Dap]L; lactam 2-C)
- MIC A. baumannii ATCC 19606 (A. baumannii ATCC 19606): 8 µg/mL (≈ 7.23 µM)
- MIC A. baumannii GN_093 PmxR (A. baumannii GN_093 PmxR): 16 µg/mL (≈ 14.5 µM)
- MIC E. coli ATCC 25922 (E. coli ATCC 25922): 4 µg/mL (≈ 3.62 µM)
- MIC K. pneumoniae ATCC 13883 (K. pneumoniae ATCC 13883): 4 µg/mL (≈ 3.62 µM)
- MIC K. pneumoniae ATCC 700603, MDR [1]: 8 µg/mL (≈ 7.23 µM)
- MIC K. pneumoniae ATCC BAA-2146, NDM-1 pos [2]: 16 µg/mL (≈ 14.5 µM)
- MIC K. pneumoniae GN_102 PmxR [3]: 32 µg/mL (≈ 28.9 µM)
- MIC K. pneumoniae GN_106, PmxR [4]: 16 µg/mL (≈ 14.5 µM)
- MIC P. aeruginosa ATCC 27853 (P. aeruginosa ATCC 27853): 4 µg/mL (≈ 3.62 µM)
- MIC P. aeruginosa GN_043, PmxR ([5]; polymyxin-resistant): 2 µg/mL (≈ 1.81 µM)
- MIC P. aeruginosa GN_105, PmxR [6]: 4 µg/mL (≈ 3.62 µM)
- MIC S. aureus ATCC 25923, MSSA [7]: 2 µg/mL (≈ 1.81 µM)

SMILES: CCCCCCC[C@@H](O)CC(=O)N[C@H](CCN)C(=O)N[C@H]1CCNC(=O)[C@H](CC(C)C)NC(=O)[C@H](CCN)NC(=O)[C@H](CCN)NC(=O)[C@H](Cc2ccccc2)NC(=O)[C@@H](Cc2ccccc2)NC(=O)[C@H](CCN)NC1=O [compound 5003, 3(R)OH-nC9CO-D-Dab-cyc[L-Dab-L-Dab-D-Phe-L-Phe-L-Dab-L-Dab-L-Leu]] ({Decanoyl(3R-OH)}-[dDab][Dab][Dab][dF]F[Dab][Dab]L; lactam 2-C)
- MIC A. baumannii ATCC 19606 (A. baumannii ATCC 19606): 16 µg/mL (≈ 14.8 µM)
- MIC A. baumannii GN_093 PmxR (A. baumannii GN_093 PmxR): 8 µg/mL (≈ 7.42 µM)
- MIC E. coli ATCC 25922 (E. coli ATCC 25922): 8 µg/mL (≈ 7.42 µM)
- MIC K. pneumoniae ATCC 13883 (K. pneumoniae ATCC 13883): 4 µg/mL (≈ 3.71 µM)
- MIC K. pneumoniae ATCC 700603, MDR [1]: 16 µg/mL (≈ 14.8 µM)
- MIC K. pneumoniae ATCC BAA-2146, NDM-1 pos [2]: 16 µg/mL (≈ 14.8 µM)
- MIC K. pneumoniae GN_102 PmxR [3]: 4 µg/mL (≈ 3.71 µM)
- MIC K. pneumoniae GN_106, PmxR [4]: 4 µg/mL (≈ 3.71 µM)
- MIC P. aeruginosa ATCC 27853 (P. aeruginosa ATCC 27853): 2 µg/mL (≈ 1.85 µM)
- MIC P. aeruginosa GN_043, PmxR ([5]; P. aeruginosa GN_043, PmxR): 2 µg/mL (≈ 1.85 µM)
- MIC P. aeruginosa GN_105, PmxR [6]: 2 µg/mL (≈ 1.85 µM)
- MIC S. aureus ATCC 25923, MSSA [7]: 8 µg/mL (≈ 7.42 µM)

SMILES: CCCCCCC[C@@H](O)CC(=O)N[C@H](Cc1ccc([N+](=O)[O-])cc1)C(=O)N[C@H]1CCNC(=O)[C@H](CC(C)C)NC(=O)[C@H](CCN)NC(=O)[C@H](CCN)NC(=O)[C@H](Cc2ccccc2)NC(=O)[C@@H](CC(C)C)NC(=O)[C@H](CCN)NC1=O [compound 6433, 3(R)OH-nC9CO-D-4NO2Phe-cyc[L-Dab-L-Dab-D-Leu-L-Phe-L-Dab-L-Dab-L-Leu]] ({Decanoyl(3R-OH)}-[dPhe(4-NO2)][Dab][Dab][dL]F[Dab][Dab]L; lactam 2-C)
- MIC A. baumannii ATCC 19606 (A. baumannii ATCC 19606): 8 µg/mL (≈ 7.04 µM)
- MIC A. baumannii GN_093 PmxR (A. baumannii GN_093 PmxR): 16 µg/mL (≈ 14.1 µM)
- MIC E. coli ATCC 25922 (E. coli ATCC 25922): 8 µg/mL (≈ 7.04 µM)
- MIC K. pneumoniae ATCC 13883 (K. pneumoniae ATCC 13883): 8 µg/mL (≈ 7.04 µM)
- MIC K. pneumoniae ATCC 700603, MDR [1]: 8 µg/mL (≈ 7.04 µM)
- MIC K. pneumoniae ATCC BAA-2146, NDM-1 pos [2]: 8 µg/mL (≈ 7.04 µM)
- MIC K. pneumoniae GN_102 PmxR [3]: 4 µg/mL (≈ 3.52 µM)
- MIC K. pneumoniae GN_106, PmxR [4]: 4 µg/mL (≈ 3.52 µM)
- MIC P. aeruginosa ATCC 27853 (P. aeruginosa ATCC 27853): 8 µg/mL (≈ 7.04 µM)
- MIC P. aeruginosa GN_043, PmxR ([5]; P. aeruginosa GN_043, PmxR): 4 µg/mL (≈ 3.52 µM)
- MIC P. aeruginosa GN_105, PmxR [6]: 8 µg/mL (≈ 7.04 µM)
- MIC S. aureus ATCC 25923, MSSA [7]: 8 µg/mL (≈ 7.04 µM)
